For 13 molecules, response vs control in vivo and IC50 results are on record in patent publication US5629430A, “Trifluoromethylpyrroloindolecarboxylic acid ester and process for production thereof” (Kyorin Pharmaceutical Co., Ltd., priority 1992, dated 1997).

In brackets after ≈: the same amount, converted by molar mass. Like-named read-outs stand apart in the source and are kept apart here.

One test relates to Colon-26 cells. Put plainly: Antineoplastic activity, mice having Colon-26 cells transplanted subcutaneously. Type of test: in vivo, mouse (female, CDF1 strain). To be noted: Mus musculus, Colon 26, iv, 168 h, read-out: T/C (average tumor weight, dosed vs. solvent-dosed control). As to the method:
(§1) The test compound was dissolved in dimethylsulfoxide, and the solution was adequately diluted with 10% Emulfore EL620(produced by Rhone Poulenc Co.) to prepare the test compound solution. The antineoplastic activity was evaluated as below.
To the lateral region of a female mouse (CDF1 strain, 8 to 12 week age), 1×10^6 Colon-26 cells were transplanted subcutaneously. On the sixth day after the transplantation, the test medicine solution-was injected into the tail vein in a single dose. Seven to twelve mice were employed for the solvent-dosed control group, and five mice were employed for the dosed group. One week after the dosage, the tumor was cut out, and the weight thereof was measured. The antineoplastic effect was evaluated by the ratio (T/C) of the average tumor weight of the dosed group (T) to the average tumor weight of the solvent-dosed control group (C).

Test [1] deals with P388 mouse leukemia cells. Put plainly: Activity against tumor cell growth (P388, MTT, 72 h). The format is cell-based. To be noted: read-out: IC50 (50% growth inhibition concentration). As to the method:
Using a culture medium RPMI1640 supplemented with 10% inactivated bovine fetal serum, 2 mM glutamine, 100 μ/ml kanamycin sulfate, and 5 μM 2-hydroxyethyldisulfide (This culture medium is hereinafter referred to simply as "culture medium"), P388 mouse leukemia cells were diluted to a concentration of 1.5×10^5 cells/ml in the culture medium, and were placed in each well of 96-well multiplate in 60 μl portions. Separately, the test compound was dissolved in dimethylsulfoxide and was adequately diluted with the culture medium. The diluted solution containing test compound was added to the wells of the above plate respectively in 60 μl portions. Then the cells were incubated in a CO2 -incubator (5% CO2, 37° C.) for 72 hours.
The surviving cell numbers were measured according to the Mosmann's method (J. Immunol. Meth., 65 55-63, 1983) as follows. A 2.5 mg/ml solution of MTT (3-[4,5-dimethylthiazol-2-yl]-2,5-diphenyltetrazolium bromide) in Dulbecco's phosphate buffer solution (PBS) was prepared and added to each of the wells by 20 μl. The cells were further incubated for 3 hours. A 150 μl portion of 0.04N hydrochloric acid-isopropanol solution was added to each of the wells, and MTT-formazane formed was allowed to dissolve by pipetting. The absorbance of the solutions was measured at 540 nm taking the no-cell-containing [solution as the background. The 50% growth inhibition concentration (ICs50) was calculated from ratio of the absorbances of the treated samples to the absorbance of the no-medicine-treated sample, and from the concentration of the test compound.

The next test has as its system Sarcoma-180 cells. Briefly: Antineoplastic activity, mice having Sarcoma-180 cells transplanted subcutaneously. To be noted: Mus musculus, Sarcoma-180, iv, 144 h, tumor weighed six days after dosage, read-out: T/C (average tumor weight, dosed vs. solvent-dosed control). Type of test: in vivo, mouse (female, CDR strain). The protocol: as §1
To the lateral region of a female mouse (CDR strain, 5 to 6 week age), 3.6×10^6 to 5×10^6 Sarcoma-180 cells were transplanted subcutaneously. Next day, the test medicine solution was injected into the tail vein in a single dose. Eight to twelve mice were employed for the solvent-dosed control group, and five mice were employed for the dosed group. Six days after the dosage, the tumor was cut out, and the weight thereof was measured. The antineoplastic effect was evaluated by the ratio (T/C) of the average tumor weight of the dosed group (T) to the average tumor weight of the solvent-dosed control group (C).

[2] abbreviates: i.v. 0.5 mg/kg single dose on sixth day, tumor weighed one week after dosage.
The mark [3] stands for this setting: P388 mouse leukemia cells, 72 h, 37° C., MTT.

Regarding `COC(=O)c1c(C(F)(F)F)[nH]c2c(OC(=O)N3CCN(C)CC3)cc3c(c12)[C@H](CCl)CN3C(=O)c1cc2cc(NC(=O)c3cc4c(OC)c(OC)c(OC)cc4cn3)ccc2[nH]1` [Example 97], the response vs control in vivo at 0.5 mg/kg with Colon-26 cells turned out to be 11%. For the same molecule, the IC50 in test [1] (Mus musculus, P388, 72 h) came to 5.8 ng/mL (≈ 6.6 nM).

On to `COC(=O)c1c(C(F)(F)F)[nH]c2c(O)cc3c(c12)[C@H](CCl)CN3C(=O)c1cc2cc(NC(=O)c3cc4ccc(OC)cc4o3)ccc2[nH]1` [Example 77, Methyl (1S)-1-chloromethyl-5-hydroxy-3-[5-(6-methoxybenzofuran-2-ylcarbonyl)amino-1H-indol-2-ylcarbonyl]-7-trifluoromethyl-1,2,3,6-tetrahydropyrrolo[3,2-e]indole-8-carboxylate], for which the response vs control in vivo at 0.5 mg/kg with Colon-26 cells (setting [2]) is 6%. In addition, the IC50 in test [1] (setting [3]) amounted to 0.23 ng/mL (≈ 0.338 nM). With `COC(=O)c1c(C(F)(F)F)[nH]c2c(OC(=O)N3CCN(C)CC3)cc3c(c12)[C@H](CCl)CN3C(=O)c1cc2cc(NC(=O)c3cc4ccccc4cn3)ccc2[nH]1` [Example 107, Methyl (1S)-1-chloromethyl-3-[5-[(isoquinolin-3-ylcarbonyl)amino]-1H-indol-2-ylcarbonyl]-5-(4-methylpiperazin-1-ylcarbonyl)oxy-7-trifluoromethyl-1,2,3,6-tetrahydropyrrolo[3,2-e]indole-8-carboxylate], the response vs control in vivo at 0.5 mg/kg in the test with Colon-26 cells is 7%. In addition, the IC50 in test [1] (Mus musculus, P388, 72 h) was 4.6 ng/mL (≈ 5.84 nM). In the case of `COC(=O)c1c(C(F)(F)F)[nH]c2c(O)cc3c(c12)[C@H](CCl)CN3C(=O)c1cc2cc(NC(=O)c3cc4cccc(OC)c4o3)ccc2[nH]1` [Example 63, Methyl (1S)-1-chloromethyl-5-hydroxy-3-[5-[(7-methoxybenzofuran-2-ylcarbonyl)amino]-1H-indol-2-ylcarbonyl]-7-trifluoromethyl-1,2,3,6-tetrahydropyrrolo[3,2-e]indole-8-carboxylate], the response vs control in vivo at 0.5 mg/kg in the test on Colon-26 cells (setting [2]) is 4%. Moreover, the IC50 in test [1] (setting [3]) was determined as 0.55 ng/mL (≈ 0.808 nM). The corresponding values for `COC(=O)c1c(C(F)(F)F)[nH]c2c(O)cc3c(c12)[C@H](CCl)CN3C(=O)c1cc2cc(NC(=O)c3cc4cc(OC)ccc4o3)ccc2[nH]1` [Example 76, Methyl (1S)-1-chloromethyl-5-hydroxy-3-[5-(5-methoxybenzofuran-2-ylcarbonyl)amino-1H-indol-2-ylcarbonyl]-7-trifluoromethyl-1,2,3,6-tetrahydropyrrolo[3,2-e]indole-8-carboxylate] are 6% and 0.2 ng/mL (≈ 0.294 nM). In the case of `COC(=O)c1c(C(F)(F)F)[nH]c2c(O)cc3c(c12)[C@H](CCl)CN3C(=O)c1cc2cc(NC(=O)c3cc4cc(OC)c(OC)c(OC)c4o3)ccc2[nH]1` [Example 78, Methyl (1S)-1-chloromethyl-5-hydroxy.-7trifluoromethyl-3-[5-(5,6,7-trimethoxybenzofuran-2-ylcarbonyl)amino-1H-indol-2-ylcarbonyl]-1,2,3,6-tetrahydropyrrolo[3,2-e]indole-8-carboxylate], in the test with Colon-26 cells (i.v. 0.125 mg/kg single dose on sixth day, tumor weighed one week after dosage), the response vs control in vivo at 0.125 mg/kg came to 26%. Moreover, the IC50 in test [1] (setting [3]) is 0.33 ng/mL (≈ 0.445 nM).

With `COC(=O)c1c(C(F)(F)F)[nH]c2c1[C@@]13C[C@@H]1CN(C(=O)/C=C/c1ccc(OC)cc1)C3=CC2=O` [Example 90, Methyl (7bR, 8aS)-2-[2-(4-methoxyphenyl)ethylene-1-ylcarbonyl)-6-trifluoromethyl-1,2,8,8a-tetrahydrocyclopropa[c]pyrrolo[3,2-e]indol-4 (5H)-one-7-carboxylate], the response vs control in vivo at 1 mg/kg in the test on Colon-26 cells (i.v. 1.0 mg/kg single dose on sixth day, tumor weighed one week after dosage) worked out at 31%. Moreover, the IC50 in test [1] (setting [3]) stood at 0.9 ng/mL (≈ 1.91 nM). Take `CCN(CC)c1ccc2cc(C(=O)Nc3ccc4[nH]c(C(=O)N5C[C@@H](CCl)c6c5cc(O)c5[nH]c(C(F)(F)F)c(C(=O)OC)c65)cc4c3)oc2c1` [Example 79, Methyl (1S)-1-chloromethyl-3-[5-(6-diethylaminobenzofuran-2-ylcarbonyl)amino-1H-indol-2-ylcarbonyl]-5-hydroxy-7-trifluoromethyl-1,2,3,6tetrahydropyrrolo[3,2-e]indole-8-carboxylate]: the response vs control in vivo at 0.5 mg/kg in the test with Colon-26 cells (setting [2]) was determined as 9%. Moreover, in test [1] (setting [3]), the IC50 stood at 2.1 ng/mL (≈ 2.91 nM). On to `COC(=O)c1c(C(F)(F)F)[nH]c2c(OC(=O)N3CCN(C)CC3)cc3c(c12)[C@H](CCl)CN3C(=O)c1cc2cc(NC(=O)c3cc4c(cn3)[nH]c3ccccc34)ccc2[nH]1` [Example 98, Methyl (1S)-1-chloromethyl-5-(4-methylpiperazin-1-ylcarbonyl)oxy-3-[5-[(9H-pyrido[3,4-b]indol-3-ylcarbonyl)amino]-1H-indol-2-ylcarbonyl]-7-trifluoromethyl-1,2,3,6-tetrahydropyrrolo[3,2-e]indole-8-carboxylate], for which the response vs control in vivo at 0.5 mg/kg in the test on Colon-26 cells was found to be 29%. In test [1] (Mus musculus, P388, 72 h), the IC50 came to 5.7 ng/mL (≈ 6.89 nM). As for `COC(=O)c1c(C(F)(F)F)[nH]c2c1[C@@]13C[C@@H]1CN(C(=O)c1cc4cccc(OC)c4o1)C3=CC2=O` [Example 86, Methyl (7bR, 8aS)-2-(7-methoxybenzofuran-2-ylcarbonyl)-6-trifluoromethyl-1,2,8,8a-tetrahydrocyclopropa[c]pyrrolo[3,2-e]indol-4 (5H)-one-7-carboxylate], the response vs control in vivo at 0.5 mg/kg in the test on Colon-26 cells (setting [2]) was 40%. Moreover, the IC50 in test [1] (setting [3]) stood at 1.1 ng/mL (≈ 2.26 nM). For the molecule `COC(=O)c1c(C(F)(F)F)[nH]c2c(OC(=O)N3CCN(C)CC3)cc3c(c12)[C@H](CCl)CN3C(=O)c1cc2cc(NC(=O)c3cc4cccc(OC)c4o3)ccc2[nH]1` [Example 99, Methyl (1S)-1-chloromethyl-3-[5[(7-methoxybenzofuran-2-ylcarbonyl)amino]-1H-indol-2-ylcarbonyl]-5-(4-methylpiperazin-1-ylcarbonyl)oxy-7-trifluoromethyl-1,2,3,6-tetrahydropyrrolo[3,2-e]indole-8-carboxylate], the response vs control in vivo at 2 mg/kg with Colon-26 cells is 5%. Turning to `COC(=O)c1c(C(F)(F)F)[nH]c2c1C13CC1CN(C(=O)c1cc4cc(NC(=O)c5cc6cc(OC)c(OC)c(OC)c6[nH]5)ccc4[nH]1)C3=CC2=O` (stereo not shown) [Example 27, Methyl 6-trifluoromethyl-2-[5-[(5,6,7-trimethoxy-1H indol-2-ylcarbonyl)amino]-1H-indol-2-ylcarbonyl]-1,2,8,8a-tetrahydrocyclopropa[c]pyrrolo[3,2-e]indole-4 (5H)-one-7-carboxylate], the IC50 in test [1] (setting [3]) came out at 0.17 ng/mL (≈ 0.242 nM). The response vs control in vivo at 0.125 mg/kg with Sarcoma-180 cells (i.v. 0.125 mg/kg single dose) was found to be 19%. As for `COC(=O)c1c(C(F)(F)F)[nH]c2c(O)cc3c(c12)C(CCl)CN3C(=O)c1cc2cc(NC(=O)c3cc4c(OC)c(OC)c(OC)cc4nn3)ccc2[nH]1` (stereo not shown) [Example 50, Methyl 1-chloromethyl-5-hydroxy-7-trifluoromethyl-3-[5-[(5,6,7-trimethoxycinnolin-3-ylcarbonyl)amino]-1H-indol-2-ylcarbonyl]-1,2,3,6-tetrahydropyrrolo[3,2-e]indole-8-carboxylate], the IC50 in test [1] (setting [3]) is 4.5 ng/mL (≈ 5.98 nM). Also, the response vs control in vivo at 4 mg/kg in the test with Sarcoma-180 cells (i.v. 4.0 mg/kg single dose) was found to be 15%.
